Here are results for ten compounds from PubChem BioAssay AID1259407 (Chemical Carcinogenesis Research Information System (CCRIS), 2018).

Molecules are shown by their SMILES. The source made the active and inactive calls. No rule for the calls is given here.

The subject of this data set is CCRIS mutagenicity, Ames/micronucleus/aberration tests. Nature of the data set: CCRIS mutagenicity studies.
Setting [1] is: Test System: AMES SALMONELLA TYPHIMURIUM, Strain/Indicator: TA98, Metabolic Activation: NONE, Method: STANDARD PLATE.
[2] abbreviates: Test System: AMES SALMONELLA TYPHIMURIUM, Strain/Indicator: TA98, Metabolic Activation: RAT, LIVER, S-9, AROCLOR 1254, Method: STANDARD PLATE.
The mark [3] stands for this setting: Test System: AMES SALMONELLA TYPHIMURIUM, Strain/Indicator: TA100, Metabolic Activation: NONE, Method: STANDARD PLATE.
Where [4] appears, read: Test System: AMES SALMONELLA TYPHIMURIUM, Strain/Indicator: TA100, Metabolic Activation: RAT, LIVER, S-9, AROCLOR 1254, Method: STANDARD PLATE.
[5] abbreviates: Test System: AMES SALMONELLA TYPHIMURIUM, Strain/Indicator: TA98, Metabolic Activation: NONE, Method: PREINCUBATION
Setting [6] is: Test System: AMES SALMONELLA TYPHIMURIUM, Strain/Indicator: TA100, Metabolic Activation: NONE, Method: PREINCUBATION
The mark [7] stands for this setting: Test System: AMES SALMONELLA TYPHIMURIUM, Strain/Indicator: TA100, Metabolic Activation: S-9, Method: PREINCUBATION

Regarding `C/C=N/O`, the mutagenic call reads like this: (Test System: AMES SALMONELLA TYPHIMURIUM, Strain/Indicator: TA98, Metabolic Activation: HAMSTER, LIVER, S-9, AROCLOR 1254, Method: STANDARD PLATE) “inactive; negative”; under setting [1], “inactive; negative”; under setting [2], “inactive; negative”; (Test System: AMES SALMONELLA TYPHIMURIUM, Strain/Indicator: TA100, Metabolic Activation: HAMSTER, LIVER, S-9, AROCLOR 1254, Method: STANDARD PLATE) “inactive; negative”; under setting [3], “inactive; negative”; under setting [4], “inactive; negative”. Further, the mutagenic call by setting is: (Test System: AMES SALMONELLA TYPHIMURIUM, Strain/Indicator: TA102, Metabolic Activation: RAT, LIVER, S-9, PHENOBARBITAL AND 5,6-BENZOFLAVONE, Method: STANDARD PLATE) “inactive; negative”; (Test System: AMES SALMONELLA TYPHIMURIUM, Strain/Indicator: TA1535, Metabolic Activation: HAMSTER, LIVER, S-9, AROCLOR 1254, Method: STANDARD PLATE) “inactive; negative”; (Test System: AMES SALMONELLA TYPHIMURIUM, Strain/Indicator: TA1535, Metabolic Activation: NONE, Method: STANDARD PLATE) “inactive; negative”; (Test System: AMES SALMONELLA TYPHIMURIUM, Strain/Indicator: TA1535, Metabolic Activation: RAT, LIVER, S-9, AROCLOR 1254, Method: STANDARD PLATE) “inactive; negative”; (Test System: AMES SALMONELLA TYPHIMURIUM, Strain/Indicator: TA1537, Metabolic Activation: HAMSTER, LIVER, S-9, AROCLOR 1254, Method: STANDARD PLATE) “inactive; negative”; (Test System: AMES SALMONELLA TYPHIMURIUM, Strain/Indicator: TA1537, Metabolic Activation: NONE, Method: STANDARD PLATE) “inactive; negative”. For the same compound, the mutagenic call (Test System: AMES SALMONELLA TYPHIMURIUM, Strain/Indicator: TA1537, Metabolic Activation: RAT, LIVER, S-9, AROCLOR 1254, Method: STANDARD PLATE) was “inactive; negative”; the mutagenic call (Test System: AMES SALMONELLA TYPHIMURIUM, Strain/Indicator: TA1538, Metabolic Activation: HAMSTER, LIVER, S-9, AROCLOR 1254, Method: STANDARD PLATE) was “inactive; negative”; the mutagenic call (Test System: AMES SALMONELLA TYPHIMURIUM, Strain/Indicator: TA1538, Metabolic Activation: NONE, Method: STANDARD PLATE) is “inactive; negative”; the mutagenic call (Test System: AMES SALMONELLA TYPHIMURIUM, Strain/Indicator: TA1538, Metabolic Activation: RAT, LIVER, S-9, AROCLOR 1254, Method: STANDARD PLATE) is “inactive; negative”; the mutagenic call (Test System: AMES SALMONELLA TYPHIMURIUM, Strain/Indicator: TA2638, Metabolic Activation: RAT, LIVER, S-9, PHENOBARBITAL AND 5,6-BENZOFLAVONE, Method: STANDARD PLATE) is “inactive; negative”; the mutagenic call (Test System: E. COLI, Strain/Indicator: WP2 (PKM101), Metabolic Activation: RAT, LIVER, S-9, PHENOBARBITAL AND 5,6-BENZOFLAVONE, Method: STANDARD PLATE) was “inactive; negative”. The mutagenic call (Test System: E. COLI, Strain/Indicator: WP2 UVRA (PKM101), Metabolic Activation: RAT, LIVER, S-9, PHENOBARBITAL AND 5,6-BENZOFLAVONE, Method: STANDARD PLATE) was “inactive; negative”; the mutagenic call (Test System: MOUSE LYMPHOMA, Strain/Indicator: L5178Y (TK+/TK-), Metabolic Activation: RAT, LIVER, S-9, AROCLOR 1254, Method: SUSPENSION/PLATE) was “active; positive. reevaluation of results: inconclusive”; the mutagenic call (Test System: Mouse lymphoma, Strain/Indicator: L5178Y (tk+tk-), Metabolic Activation: None, Method: Suspension/plate) was “inactive; negative”; the mutagenic call (Test System: Mouse lymphoma, Strain/Indicator: L5178Y (tk+tk-), Metabolic Activation: Rat, Liver, S-9, Aroclor 1254, Method: Suspension/plate) was “active; inconclusive (previously evaluated positive)”.
In the case of `CC/C=C/C=C/C=C/C=C/C=O`, the mutagenic call reads like this: under setting [1], “inactive; negative”; under setting [3], “inactive; negative”; (Test System: AMES SALMONELLA TYPHIMURIUM, Strain/Indicator: TA104, Metabolic Activation: NONE, Method: STANDARD PLATE) “inactive; negative”.
In the case of `O=Cc1ccc(Cl)cc1`, the mutagenic call was “inactive; negative” under setting [5]; “inactive; negative” (Test System: AMES SALMONELLA TYPHIMURIUM, Strain/Indicator: TA98, Metabolic Activation: RAT LIVER S-9, PCB, Method: PREINCUBATION); “inactive; negative” under setting [6]; “inactive; negative” (Test System: AMES SALMONELLA TYPHIMURIUM, Strain/Indicator: TA100, Metabolic Activation: RAT LIVER S-9, AROCLOR 1254, Method: PREINCUBATION); “inactive; negative” (Test System: AMES SALMONELLA TYPHIMURIUM, Strain/Indicator: TA100, Metabolic Activation: RAT LIVER S-9, PCB, Method: PREINCUBATION); “inactive; negative” (Test System: AMES SALMONELLA TYPHIMURIUM, Strain/Indicator: TA102, Metabolic Activation: NONE, Method: PREINCUBATION). In addition, the mutagenic call is, setting by setting: (Test System: AMES SALMONELLA TYPHIMURIUM, Strain/Indicator: TA102, Metabolic Activation: RAT LIVER S-9, AROCLOR 1254, Method: PREINCUBATION) “inactive; negative”; (Test System: AMES SALMONELLA TYPHIMURIUM, Strain/Indicator: TA104, Metabolic Activation: NONE, Method: PREINCUBATION) “inactive; negative”; (Test System: AMES SALMONELLA TYPHIMURIUM, Strain/Indicator: TA104, Metabolic Activation: RAT LIVER S-9, AROCLOR 1254, Method: PREINCUBATION) “inactive; negative”; (Test System: AMES SALMONELLA TYPHIMURIUM, Strain/Indicator: TA104, Metabolic Activation: RAT LIVER S-9, PCB, Method: PREINCUBATION) “inactive; negative”; (Test System: E. COLI, Strain/Indicator: WP2 UVRA, Metabolic Activation: NONE, Method: PREINCUBATION) “inactive; negative”; (Test System: E. COLI, Strain/Indicator: WP2 UVRA, Metabolic Activation: RAT LIVER S-9, PCB, Method: PREINCUBATION) “inactive; negative”. Also, the mutagenic call was “inactive; positive. reevaluation of results: negative” (Test System: MOUSE LYMPHOMA, Strain/Indicator: L5178Y (TK+/TK-), Metabolic Activation: NONE, Method: SUSPENSION/PLATE) and “inactive; negative” (Test System: Mouse lymphoma, Strain/Indicator: L5178Y (tk+/tk-), Metabolic Activation: Rat, Liver, S-9, Aroclor 1254, Method: Suspension/plate).
As for `c1ccc([C@H]2O[C@H]2c2ccccc2)cc1`, for the setting “Test System: UDS RAT HEPATOCYTES, Strain/Indicator: THY INCORP, Metabolic Activation: NONE”, the mutagenic call is “inactive; negative”.
In the case of `COc1cccc2cccnc12`, the mutagenic call under setting [7] is “inactive; negative”.
For the compound `COc1ccc2c3c(cccc13)C(=O)N(C)C2=O`, the mutagenic call is “inactive; negative” under setting [5]; “inactive; negative” (Test System: AMES SALMONELLA TYPHIMURIUM, Strain/Indicator: TA98, Metabolic Activation: S-9, Method: PREINCUBATION); “inactive; negative” under setting [6]; “inactive; negative” under setting [7].
Take `O=Cc1c2ccccc2cc2ccccc12`: the mutagenic call by setting is: under setting [2], “inactive; negative”; under setting [3], “inactive; negative”; under setting [4], “inactive; negative”.
For `CCCCCCOC(=O)NO`, the mutagenic call (Test System: E. COLI, Strain/Indicator: WP2 UVRA, Metabolic Activation: NONE, Method: FLUCTUATION TEST) is “active; positive”.
Turning to `Cc1cc(C(C#N)c2ccc(Cl)cc2)c(Cl)cc1NC(=O)c1cc(I)cc(I)c1O` (stereo unspecified), where the note is “End Point: In vivo chromosomal aberrations, Test System: Bone marrow cells, Species: Mouse, Strain/Sex: Swiss/Male, Route: Intraperitoneal”, the mutagenic call was “active; positive (structural changes)”.
As for `CCOP(=S)(OCC)Oc1ccc(S(C)=O)cc1` (stereo unspecified), the mutagenic call (End Point: In vivo micronucleus, Species: Mouse, Strain/Sex: NMRI/Male and female) was “inactive; negative”.
